Where two headings read alike, the source gives them in different places.
Biological target: T1, recombinant human GluN1/GluN2A receptor (Homo sapiens, UniProt Q05586+Q12879)
T1 construct: expressed in transfected cells; host or cells: HEK293, tetracycline-inducible expression
Assay: Whole-cell patch clamp of mammalian cells (Syncropatch 384i), NMDA modulation
Assay type: cell-based
Conditions: HEK293 cells, human GluN1/GluN2A, glutamate 1 μM / glycine 100 μM, -80 mV, peak amplitude increase; for EC50: read-out: EC50
Text: Whole-Cell Patch Clamp of Mammalian Cells (Syncropatch 384i (Nanion Technologies))
Whole-cell patch clamp electrophysiology was used to investigate the effects of compounds on GluN1/GluN2A N-methyl-D-aspartate (NMDA) glutamate receptors expressed in mammalian cells.
Human embryonic kidney (HEK293) cells expressing the recombinant human GluN1/GluN2A receptor under the control of a tetracycline-inducible expression system were used. Cells were maintained in Dulbecco's Modified Eagle's Medium (DMEM) with 1% glutamine, 10% Tetracycline System Approved fetal bovine serum (FBS), and NMDA inhibitors. Cells were cultured in a humidified 5% CO2 incubator at 37° C. Cells were induced with 50 ng/ml tetracycline 18-24 hours prior to testing. A cocktail of channel blockers was added to the media to prevent cell death.
Cells were 60-80% confluent at the time of harvest. Cells were detached from the flask TrypLE Enzyme Express (Thermo Fisher) at 37° C., and then cold extracellular solution was added to the flask, followed by incubation at 4° C. and then trituration of the cells. The cell solution was then placed on a shaker on the Syncropatch platform at 10° C. with a shake speed of a minimum 200 rpm for at least 30 minutes prior to testing.
Extracellular (EC) solution (in mM) —140 NaCl, 4 KCl, 5 CaCl2, 10 HEPES, 5 Glucose, pH 7.4 with NaOH. All external solutions contained 0.2% DMSO and 0.01% Kolliphor® EL (C5135, Sigma) throughout the experiment.
Intracellular (IC) solution (in mM) —120 CsF, 10 mM EGTA, 10 NaCl, 10 HEPES, 4 NaATP, 2 MgCl2, pH 7.2 with CsOH.
First, the DMSO Master Plate was prepared, in which the DMSO stock of each test compound was serially diluted in 100% DMSO to 1000× the final assay concentration. Immediately prior to assay testing, the compounds were diluted 1:100 by transferring solutions from the DMSO Mast Plate to the Intermediate Plate pre-filled with EC solution using a Biomek FX automated liquid handling system. Compounds were then diluted further with extracellular solution into two pre-incubation plates—1) compound from the Intermediate Plate was mixed with EC solution at a 1:5 dilution to create a 2× Compound Pre-Incubation Plate which was diluted a further 1:2 when added to the Syncropatch for the initial compound pre-incubation. And 2) compound from the Intermediate plate was mixed with EC solution at a 1:10 Dilution to create the 1× Compound Pre-Incubation Plate, which was used for subsequent compound pre-incubations. Finally, a Compound+Agonist Plate was prepared by mixing compound from the 2× Compound Pre-Incubation Plate with 2× concentration of co-agonists in a 1:1 ratio.
Each experiment sequentially included cell catching, sealing, whole-cell formation, liquid application, recording and data acquisition. Whole-cell patch clamp recordings were performed using multi-hole high resistance chips on the SyncroPatch 384i (Nanion Technologies). A steady-state voltage pulse at -80 mV was applied throughout the assay and a 10 second recording window was triggered around 1 second prior to application of co-agonists. Currents were leak corrected and sampled at 5 kHz.
A fast application was used, in which 5 μl co-agonist was rapidly applied at a speed of 30 μl/s and then rapidly removed from the well. To test for modulator activity, the co-agonists glutamate (1 μM) and glycine (100 μM) were applied three times to show activation reproducibility, followed by 120 seconds pre-incubation of test compound alone. The test compound was then re-applied in the presence of co-agonists two times. This was followed by application of the agonist alone, although test compound may not be fully washed from the well prior to this step. Finally, a saturating concentration of co-agonists (glutamate 100 μM/glycine 100 μM) was applied.
The voltage protocol generation data collection and analysis were performed on PatchControll384 and DataControll384. […]

T1 sequence (Q12879 23-1464, other chains not shown): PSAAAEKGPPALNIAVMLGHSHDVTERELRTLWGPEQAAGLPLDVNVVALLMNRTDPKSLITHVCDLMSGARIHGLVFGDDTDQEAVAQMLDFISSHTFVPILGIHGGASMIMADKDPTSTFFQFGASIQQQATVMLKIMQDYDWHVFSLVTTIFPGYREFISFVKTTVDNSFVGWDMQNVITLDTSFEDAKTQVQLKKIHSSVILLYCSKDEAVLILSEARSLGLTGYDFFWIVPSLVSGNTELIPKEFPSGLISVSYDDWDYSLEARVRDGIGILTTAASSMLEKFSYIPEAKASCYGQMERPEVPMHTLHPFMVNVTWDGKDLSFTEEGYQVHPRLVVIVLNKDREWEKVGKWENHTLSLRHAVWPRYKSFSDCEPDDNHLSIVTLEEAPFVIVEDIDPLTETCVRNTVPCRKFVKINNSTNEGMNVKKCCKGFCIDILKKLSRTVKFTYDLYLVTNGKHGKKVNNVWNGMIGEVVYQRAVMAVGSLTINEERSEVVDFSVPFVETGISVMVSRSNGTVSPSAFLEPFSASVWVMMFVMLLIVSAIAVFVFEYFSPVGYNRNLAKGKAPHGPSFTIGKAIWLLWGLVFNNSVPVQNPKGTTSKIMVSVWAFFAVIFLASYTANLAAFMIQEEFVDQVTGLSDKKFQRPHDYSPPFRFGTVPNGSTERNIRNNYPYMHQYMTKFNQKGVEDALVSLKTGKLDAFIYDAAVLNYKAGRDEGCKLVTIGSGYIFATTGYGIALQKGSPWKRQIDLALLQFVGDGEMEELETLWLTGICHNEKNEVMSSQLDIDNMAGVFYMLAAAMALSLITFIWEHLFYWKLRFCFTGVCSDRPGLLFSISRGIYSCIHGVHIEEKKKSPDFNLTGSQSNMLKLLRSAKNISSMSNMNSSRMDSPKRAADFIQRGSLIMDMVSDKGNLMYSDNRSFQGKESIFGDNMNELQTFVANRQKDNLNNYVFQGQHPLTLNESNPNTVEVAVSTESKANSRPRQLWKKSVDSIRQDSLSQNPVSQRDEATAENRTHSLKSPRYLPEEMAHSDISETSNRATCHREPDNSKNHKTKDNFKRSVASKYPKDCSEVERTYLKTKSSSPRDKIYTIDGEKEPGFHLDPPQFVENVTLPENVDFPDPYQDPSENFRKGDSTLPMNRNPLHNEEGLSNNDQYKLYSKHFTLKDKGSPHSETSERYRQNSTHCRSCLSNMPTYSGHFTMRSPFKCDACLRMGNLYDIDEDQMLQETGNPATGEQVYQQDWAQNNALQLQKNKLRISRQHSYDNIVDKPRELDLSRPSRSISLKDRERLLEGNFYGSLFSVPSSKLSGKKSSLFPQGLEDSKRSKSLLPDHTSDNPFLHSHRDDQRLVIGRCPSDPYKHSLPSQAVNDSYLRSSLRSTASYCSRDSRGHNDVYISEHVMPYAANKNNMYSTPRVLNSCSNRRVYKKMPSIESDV

| Emax (Table D-2) [%] | EC50 (Table D-2) [nM] | SMILES | EC50 (Table A-2) [nM] | Emax (Table A-2) [%] |
| --- | --- | --- | --- | --- |
|  |  | CC[C@]1(O)CC[C@@]2(C)[C@@H](CC[C@@H]3[C@@H]2CC[C@]2(C)[C@@H](C(CC[C@@H](O)C(C)C)C(F)(F)F)CC[C@@H]32)C1 (stereo in doubt) [Compound A-19, (3S,5S,8R,9S,10S,13S,14S,17R)-3-ethyl-10,13-dimethyl-17-((2R,5R)-1,1,1-trifluoro-5-hydroxy-6-methylheptan-2-yl)hexadecahydro-1H-cyclopenta[a]phenanthren-3-ol] | > 1000 |  |
| 100 to 200 | > 1000 | CCC1(O)CCC[C@@]2(C)[C@@H](CC[C@@H]3[C@@H]2CC[C@]2(C)[C@@H]([C@H](C)CC[C@](C)(O)C(F)(F)F)CC[C@@H]32)C1 (stereo in doubt) [Compound D-8, (1R,3aS,3bR,5aS,7S,10aS,10bS,12aR)-7-ethyl-10a,12a-dimethyl-1-((2R,5S)-6,6,6-trifluoro-5-hydroxy-5-methylhexan-2-yl)octadecahydrocyclohepta[a]cyclopenta[f]naphthalen-7-ol] |  |  |
|  |  | CC[C@H](CCCC(C)(C)O)[C@H]1CC[C@H]2[C@@H]3CC[C@H]4C[C@](O)(CC)CC[C@]4(C)[C@H]3CC[C@]12C [Compound A-1, (3S,5S,8R,9S,10S,13R,14S,17R)-3-ethyl-17-((R)-7-hydroxy-7-methyloctan-3-yl)-10,13-dimethylhexadecahydro-1H-cyclopenta[a]phenanthren-3-ol] | 1 to 100 | 100 to 200 |
|  |  | CC[C@H](CC[C@@](C)(O)C(F)(F)F)[C@H]1CC[C@H]2[C@@H]3CC[C@H]4C[C@](O)(CC)CC[C@]4(C)[C@H]3CC[C@]12C [Compound A-2, (3S,5S,8R,9S,10S,13R,14S,17R)-3-ethyl-10,13-dimethyl-17-((3R,6R)-7,7,7-trifluoro-6-hydroxy-6-methylheptan-3-yl)hexadecahydro-1H-cyclopenta[a]phenanthren-3-ol] | 500 to 1000 | 100 to 200 |
|  |  | CC[C@H](CC[C@](C)(O)C(F)(F)F)[C@H]1CC[C@H]2[C@@H]3CC[C@H]4C[C@](O)(CC)CC[C@]4(C)[C@H]3CC[C@]12C [Compound A-3, (3S,5S,8R,9S,10S,13R,14S,17R)-3-ethyl-10,13-dimethyl-17-((3R,6S)-7,7,7-trifluoro-6-hydroxy-6-methylheptan-3-yl)hexadecahydro-1H-cyclopenta[a]phenanthren-3-ol] | 1 to 100 | > 200 |
|  |  | CC[C@]1(O)CC[C@@]2(C)[C@@H](CC[C@@H]3[C@@H]2CC[C@]2(C)[C@@H]([C@H](F)CC[C@H](O)C(C)C)CC[C@@H]32)C1 [Compound A-4, (3S,5S,8R,9S,10S,13S,14S,17S)-3-ethyl-17-((1R,4S)-1-fluoro-4-hydroxy-5-methylhexyl)-10,13-dimethylhexadecahydro-1H-cyclopenta[a]phenanthren-3-ol] | 1 to 100 | > 200 |
|  |  | CC[C@]1(O)CC[C@@]2(C)[C@@H](CC[C@@H]3[C@@H]2CC[C@]2(C)[C@@H]([C@H](F)CC[C@@H](O)C(C)C)CC[C@@H]32)C1 [Compound A-5, (3S,5S,8R,9S,10S,13S,14S,17S)-3-ethyl-17-((1R,4R)-1-fluoro-4-hydroxy-5-methylhexyl)-10,13-dimethylhexadecahydro-1H-cyclopenta[a]phenanthren-3-ol] | 1 to 100 | > 200 |
|  |  | CC[C@]1(O)CC[C@@]2(C)[C@@H](CC[C@@H]3[C@@H]2CC[C@]2(C)[C@@H]([C@@H](CC[C@@H](O)C(C)C)OC)CC[C@@H]32)C1 [Compound A-6, (3S,5S,8R,9S,10S,13S,14S,17S)-3-ethyl-17-((1R,4R)-4-hydroxy-1-methoxy-5-methylhexyl)-10,13-dimethylhexadecahydro-1H-cyclopenta[a]phenanthren-3-ol] | 100 to 500 | > 200 |
|  |  | CC[C@]1(O)CC[C@@]2(C)[C@@H](CC[C@@H]3[C@@H]2CC[C@]2(C)[C@@H]([C@@H](CC[C@H](O)C(C)C)OC)CC[C@@H]32)C1 [Compound A-7, (3S,5S,8R,9S,10S,13S,14S,17S)-3-ethyl-17-((1R,4S)-4-hydroxy-1-methoxy-5-methylhexyl)-10,13-dimethylhexadecahydro-1H-cyclopenta[a]phenanthren-3-ol] | 100 to 500 | > 200 |
|  |  | CC[C@]1(O)CC[C@@]2(C)[C@@H](CC[C@@H]3[C@@H]2CC[C@]2(C)[C@@H](C(C#N)CCCC(C)(C)O)CC[C@@H]32)C1 (stereo partly drawn) [Compound A-8, 2-((3S,5S,8R,9S,10S,13S,14S,17R)-3-ethyl-3-hydroxy-10,13-dimethylhexadecahydro-1H-cyclopenta[a]phenanthren-17-yl)-6-hydroxy-6-methylheptanenitrile] | 1 to 100 | 100 to 200 |
|  |  | CC[C@]1(O)CC[C@@]2(C)[C@@H](CC[C@@H]3[C@@H]2CC[C@]2(C)[C@@H]([C@H](C#N)CCCC(C)(C)O)CC[C@@H]32)C1 [Compound A-9, (R)-2-((3S,5S,8R,9S,10S,13S,14S,17R)-3-ethyl-3-hydroxy-10,13-dimethylhexadecahydro-1H-cyclopenta[a]phenanthren-17-yl)-6-hydroxy-6-methylheptanenitrile] | 1 to 100 | > 200 |
|  |  | CC[C@]1(O)CC[C@@]2(C)[C@@H](CC[C@@H]3[C@@H]2CC[C@]2(C)[C@@H]([C@@H](C#N)CCCC(C)(C)O)CC[C@@H]32)C1 [Compound A-9a] | 1 to 100 | < 100 |
|  |  | CC[C@]1(O)CC[C@@]2(C)[C@@H](CC[C@@H]3[C@@H]2CC[C@]2(C)[C@@H]([C@@H](CCCC(C)(C)O)OC)CC[C@@H]32)C1 [Compound A-10, (3S,5S,8R,9S,10S,13S,14S,17S)-3-ethyl-17-((R)-5-hydroxy-1-methoxy-5-methylhexyl)-10,13-dimethylhexadecahydro-1H-cyclopenta[a]phenanthren-3-ol] | 100 to 500 | 100 to 200 |
|  |  | CCO[C@H](CC[C@H](O)C(C)C)[C@H]1CC[C@H]2[C@@H]3CC[C@H]4C[C@](O)(CC)CC[C@]4(C)[C@H]3CC[C@]12C [Compound A-11, (3S,5S,8R,9S,10S,13S,14S,17S)-17-((1R,4S)-1-ethoxy-4-hydroxy-5-methylhexyl)-3-ethyl-10,13-dimethylhexadecahydro-1H-cyclopenta[a]phenanthren-3-ol] | > 1000 |  |
|  |  | CCO[C@H](CC[C@H](O)C(C)C)[C@H]1CC[C@H]2[C@@H]3CC[C@@H]4C[C@](O)(CC)CC[C@]4(C)[C@H]3CC[C@]12C [Compound A-11a, (3S,5R,8R,9S,10S,13S,14S,17S)-17-((1R,4S)-1-ethoxy-4-hydroxy-5-methylhexyl)-3-ethyl-10,13-dimethylhexadecahydro-1H-cyclopenta[a]phenanthren-3-ol] | > 1000 | < 100 |
|  |  | CC[C@]1(O)CC[C@@]2(C)C(=CC[C@H]3[C@@H]4CC[C@H]([C@@H](CCCC(C)(C)O)OC)[C@@]4(C)CC[C@@H]32)C1 [Compound A-12, (3S,8S,9S,10R,13S,14S,17S)-3-ethyl-17-((R)-5-hydroxy-1-methoxy-5-methylhexyl)-10,13-dimethyl-2,3,4,7,8,9,10,11,12,13,14,15,16,17-tetradecahydro-1H-cyclopenta[a]phenanthren-3-ol] | 1 to 100 | 100 to 200 |

— patent US20240368214A1, “POSITIVE NMDA-MODULATING COMPOUNDS AND METHODS OF USE THEREOF” (SAGE THERAPEUTICS, INC., priority 2021, published 2024)
